Assay results from patent US12692269B2, “Therapeutic compounds” (Genentech, Inc., priority 2019, dated 2026).

Legend:
Format in all cases: binding
[1] = target: TEAD1 TAZ (amino acids 13-57) (Homo sapiens, UniProt P28347); experiment: TEAD1-TAZ HTRF (TR-FRET) protein-protein interaction assay; conditions: for TEAD1 TAZ HTRF combined: Max % Inhibition: TEAD1, TAZ peptide; for EC50: TEAD1-TAZ HTRF, TR-FRET 665 nm/615 nm, read-out: TEAD1 TAZ HTRF combined: EC50
How it was run: (§1)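 Compounds were first allowed 30 min to bind Eu-antibody-tagged His-TEAD (YAP-binding domain, aa 217-447). Biotinylated YAP 50-100 or TAZ 13-57 peptide complexed with streptavidin-XL665 was then added for 60 min at room temperature, and loss of TR-FRET signal gave IC50 or EC50 values.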

[2] = target: TEAD4 TAZ (amino acids 13-57) (Homo sapiens, UniProt Q15561); experiment: TEAD4-TAZ HTRF (TR-FRET) protein-protein interaction assay; conditions: for TEAD4 TAZ HTRF combined: Max % Inhibition: TEAD4, TAZ peptide; for EC50: TEAD4-TAZ HTRF, TR-FRET 665 nm/615 nm, read-out: TEAD4 TAZ HTRF combined: EC50
Sequence of TEAD4 TAZ (amino acids 13-57) (Q15561 217-434 limits assumed): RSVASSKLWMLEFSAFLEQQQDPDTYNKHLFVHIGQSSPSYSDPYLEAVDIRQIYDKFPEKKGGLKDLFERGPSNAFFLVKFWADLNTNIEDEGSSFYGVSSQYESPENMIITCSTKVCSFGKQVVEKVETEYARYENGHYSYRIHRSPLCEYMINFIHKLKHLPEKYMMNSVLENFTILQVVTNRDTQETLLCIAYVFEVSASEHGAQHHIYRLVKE
How it was run: as §1

TEAD3 YAP50-100 = TEAD3 YAP50-100 (Homo sapiens, UniProt Q99594); experiment: TEAD3-YAP HTRF (TR-FRET) protein-protein interaction assay; conditions: TEAD3, YAP peptide 50-100, HTRF; for EC50: read-out: TEAD3 YAP50-100 HTRF combined: EC50
Sequence of TEAD3 YAP50-100 (Q99594 173-435 limits assumed): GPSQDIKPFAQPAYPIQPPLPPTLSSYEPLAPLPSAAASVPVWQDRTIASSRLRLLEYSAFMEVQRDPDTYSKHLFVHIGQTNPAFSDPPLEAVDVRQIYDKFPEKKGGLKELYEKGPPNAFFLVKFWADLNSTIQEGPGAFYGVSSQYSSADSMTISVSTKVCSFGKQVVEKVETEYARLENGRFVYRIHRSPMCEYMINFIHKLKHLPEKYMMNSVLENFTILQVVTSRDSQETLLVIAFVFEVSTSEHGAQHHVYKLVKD
How it was run: as §1

TEAD1 YAP50-100 = TEAD1 YAP50-100 (Homo sapiens, UniProt P28347); experiment: TEAD1-YAP HTRF (TR-FRET) protein-protein interaction assay; conditions: TEAD1, YAP peptide 50-100, HTRF; for EC50: read-out: TEAD1 YAP50-100 HTRF combined: EC50
Sequence of TEAD1 YAP50-100 (P28347 167-426 limits assumed): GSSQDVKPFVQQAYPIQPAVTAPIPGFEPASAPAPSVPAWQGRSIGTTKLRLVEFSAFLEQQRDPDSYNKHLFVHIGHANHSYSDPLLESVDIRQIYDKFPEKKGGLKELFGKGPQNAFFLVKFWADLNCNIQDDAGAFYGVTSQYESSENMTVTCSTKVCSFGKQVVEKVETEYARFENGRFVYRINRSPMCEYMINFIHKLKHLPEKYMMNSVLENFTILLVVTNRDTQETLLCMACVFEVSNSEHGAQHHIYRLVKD
How it was run: as §1

TEAD2 YAP50-100 = TEAD2 YAP50-100 (Homo sapiens, UniProt Q15562); experiment: TEAD2-YAP HTRF (TR-FRET) protein-protein interaction assay; conditions: TEAD2, YAP peptide 50-100, HTRF; for EC50: read-out: TEAD2 YAP50-100 HTRF combined: EC50
Sequence of TEAD2 YAP50-100 (Q15562 217-447): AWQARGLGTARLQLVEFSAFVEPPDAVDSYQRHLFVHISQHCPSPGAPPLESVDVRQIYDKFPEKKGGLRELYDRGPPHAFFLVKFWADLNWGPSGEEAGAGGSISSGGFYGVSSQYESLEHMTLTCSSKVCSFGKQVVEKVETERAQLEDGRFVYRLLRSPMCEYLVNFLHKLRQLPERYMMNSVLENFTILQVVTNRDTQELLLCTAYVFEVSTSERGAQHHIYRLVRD
How it was run: as §1

TEAD4 YAP50-100 = TEAD4 YAP50-100 (Homo sapiens, UniProt Q15561); experiment: TEAD4-YAP HTRF (TR-FRET) protein-protein interaction assay; conditions: TEAD4, YAP peptide 50-100, HTRF; for EC50: read-out: TEAD4 YAP50-100 HTRF combined: EC50
Sequence of TEAD4 YAP50-100 (Q15561 217-434 limits assumed): as the sequence (Q15561 217-434 limits assumed) above
How it was run: as §1

[3] = target: TEAD2 TAZ (amino acids 13-57) (Homo sapiens, UniProt Q15562); experiment: TEAD2-TAZ HTRF (TR-FRET) protein-protein interaction assay; conditions: for TEAD2 TAZ HTRF combined: Max % Inhibition: TEAD2, TAZ peptide; for EC50: TEAD2-TAZ HTRF, TR-FRET 665 nm/615 nm, read-out: TEAD2 TAZ HTRF combined: EC50
Sequence of TEAD2 TAZ (amino acids 13-57) (Q15562 217-447): as the sequence (Q15562 217-447) above
How it was run: as §1

[4] = target: TEAD3 TAZ (amino acids 13-57) (Homo sapiens, UniProt Q99594); experiment: TEAD3-TAZ HTRF (TR-FRET) protein-protein interaction assay; conditions: for TEAD3 TAZ HTRF combined: Max % Inhibition: TEAD3, TAZ peptide; for EC50: TEAD3-TAZ HTRF, TR-FRET 665 nm/615 nm, read-out: TEAD3 TAZ HTRF combined: EC50
Sequence of TEAD3 TAZ (amino acids 13-57) (Q99594 173-435 limits assumed): as the sequence (Q99594 173-435 limits assumed) above
How it was run: as §1

Sequence of TEAD1 TAZ (amino acids 13-57) (P28347 167-426 limits assumed): as the sequence (P28347 167-426 limits assumed) above

Structure (SMILES) | TEAD1 TAZ HTRF combined: Max % Inhibition [1] | EC50 [1] | TEAD4 TAZ HTRF combined: Max % Inhibition [2] | EC50 [2] | TEAD3 YAP50-100 HTRF combined: Max % Inhibition (TEAD3 YAP50-100) | EC50 (TEAD3 YAP50-100) | TEAD1 YAP50-100 HTRF combined: Max % Inhibition (TEAD1 YAP50-100) | EC50 (TEAD1 YAP50-100) | TEAD2 YAP50-100 HTRF combined: Max % Inhibition (TEAD2 YAP50-100) | EC50 (TEAD2 YAP50-100) | TEAD4 YAP50-100 HTRF combined: Max % Inhibition (TEAD4 YAP50-100) | EC50 (TEAD4 YAP50-100) | TEAD2 TAZ HTRF combined: Max % Inhibition [3] | EC50 [3] | TEAD3 TAZ HTRF combined: Max % Inhibition [4] | EC50 [4]
C[C@@H]1[C@H](CF)CN1C(=O)c1c(-c2cnccn2)nn2c(=O)cc(-c3ccc(C4CCCCC4)cc3)[nH]c12 (single isomer, unassigned) [Isomer B, Example 39] | 55.0% | 170 nM | 49.5% | 6200 nM | 67.0% | 2450 nM | 62.0% | 170 nM | 17.5% | 170 nM | 46.0% | 6450 nM | 37.0% | 190 nM | 68.0% | 2500 nM
Cc1nccnc1-c1nn2c(=O)cc(-c3ccc(C4CCC(F)(F)CC4)cc3)[nH]c2c1C(=O)N1CC(CF)C1 [Compound 55, 5-(4-(4,4-Difluorocyclohexyl)phenyl)-3-(3-(fluoromethyl)azetidine-1-carbonyl)-2-(3-methylpyrazin-2-yl)pyrazolo[1,5-a]pyrimidin-7(4H)-one] | 67.0% | 240 nM | 39.5% | 110 nM | 62.0% | 200 nM | 72.0% | 260 nM | 56.5% | 60 nM | 44.5% | 140 nM | 60.0% | 50 nM | 55.0% | 210 nM
CC(C)(C)c1ccc(COc2cc(=O)n3nc(-c4cnccn4)c(C(=O)N4CC(CF)C4)c3[nH]2)cc1 [Compound 53, 5-((4-(Tert-butyl)benzyl)oxy)-3-(3-(fluoromethyl)azetidine-1-carbonyl)-2-(pyrazin-2-yl)pyrazolo[1,5-a]pyrimidin-7(4H)-one] | 62.5% | 70 nM | 51.5% | 30 nM | 58.5% | 110 nM | 72.0% | 50 nM | 64.5% | 20 nM | 65.5% | 50 nM | 67.0% | 20 nM | 46.0% | 90 nM
C[C@H](CO)c1nn2c(=O)cc(-c3ccc(C4CCCCC4)cc3)[nH]c2c1C(=O)N1CC(CF)C1 (single isomer, unassigned) [Enantiomer A, Example 55] | 44.0% | 110 nM | 32.0% | 460 nM | 69.5% | 100 nM | 62.0% | 80 nM | 61.5% | 10 nM | 42.0% | 500 nM | 51.5% | 10 nM | 59.5% | 110 nM

More lines, in order of falling EC50 [1], values ahead:

TEAD1 TAZ HTRF combined: Max % Inhibition [1] | EC50 [1] | TEAD4 TAZ HTRF combined: Max % Inhibition [2] | EC50 [2] | TEAD3 YAP50-100 HTRF combined: Max % Inhibition (TEAD3 YAP50-100) | EC50 (TEAD3 YAP50-100) | TEAD1 YAP50-100 HTRF combined: Max % Inhibition (TEAD1 YAP50-100) | EC50 (TEAD1 YAP50-100) | TEAD2 YAP50-100 HTRF combined: Max % Inhibition (TEAD2 YAP50-100) | EC50 (TEAD2 YAP50-100) | TEAD4 YAP50-100 HTRF combined: Max % Inhibition (TEAD4 YAP50-100) | EC50 (TEAD4 YAP50-100) | TEAD2 TAZ HTRF combined: Max % Inhibition [3] | EC50 [3] | TEAD3 TAZ HTRF combined: Max % Inhibition [4] | EC50 [4] | Structure (SMILES)
71.0% | 70 nM | 57.0% | 30 nM | 80.2% | 120 nM | 80.0% | 80 nM | 77.8% | 20 nM | 57.2% | 30 nM | 74.4% | 20 nM | 73.8% | 140 nM | Cc1nccnc1-c1nn2c(=O)cc(-c3ccc(C4CCCCC4)cc3)[nH]c2c1C(=O)N1C[C@H](CF)[C@@H]1C (single isomer, unassigned) [Isomer B, Example 41]
74.0% | 60 nM | 53.5% | 50 nM | 61.0% | 90 nM | 73.0% | 30 nM | 62.5% | 10 nM | 50.0% | 60 nM | 67.5% | 10 nM | 52.5% | 80 nM | COc1ccnc(-c2nn3c(=O)cc(-c4ccc(C5CCCCC5)cc4)[nH]c3c2C(=O)N2CC(CF)C2)n1 [Compound 14, 5-(4-Cyclohexylphenyl)-3-(3-(fluoromethyl)azetidine-1-carbonyl)-2-(4-methoxypyrimidin-2-yl)pyrazolo[1,5-a]pyrimidin-7(4H)-one]
73.5% | 50 nM | 65.5% | 130 nM | 80.0% | 110 nM | 79.0% | 40 nM | 76.0% | 10 nM | 62.5% | 170 nM | 75.5% | 10 nM | 75.5% | 120 nM | Cc1nccnc1-c1nn2c(=O)cc(-c3ccc(C4CCCC4)cc3)[nH]c2c1C(=O)N1C[C@H](CF)[C@@H]1C [Compound 69, 5-(4-Cyclopentylphenyl)-3-((2S,3S)-3-(fluoromethyl)-2-methylazetidine-1-carbonyl)-2-(3-methylpyrazin-2-yl)pyrazolo[1,5-a]pyrimidin-7(4H)-one]
59.5% | 50 nM | 31.0% | 290 nM | 61.0% | 60 nM | 65.0% | 50 nM | 61.5% | 10 nM | 38.5% | 380 nM | 59.0% | 10 nM | 49.5% | 60 nM | Cn1cnc(-c2nn3c(=O)cc(-c4ccc(C5CCCCC5)cc4)[nH]c3c2C(=O)N2CC(CF)C2)c1 [Compound 32, 5-(4-Cyclohexylphenyl)-3-(3-(fluoromethyl)azetidine-1-carbonyl)-2-(1-methyl-1H-imidazol-4-yl)pyrazolo[1,5-a]pyrimidin-7(4H)-one]
64.0% | 40 nM | 49.0% | 20 nM | 64.0% | 70 nM | 74.0% | 30 nM | 64.8% | 10 nM | 50.5% | 30 nM | 62.0% | 10 nM | 55.8% | 70 nM | O=C(c1c(-c2ncccn2)nn2c(=O)cc(-c3ccc(C4CCCCC4)cc3)[nH]c12)N1CC(CF)C1 [Compound 15, 5-(4-Cyclohexylphenyl)-3-(3-(fluoromethyl)azetidine-1-carbonyl)-2-(pyrimidin-2-yl)pyrazolo[1,5-a]pyrimidin-7(4H)-one]
